Data as given in patent US8912186B2, “Allosteric protein kinase modulators” (Universitaet des Saarlandes, priority 2008, dated 2014).

Columns and labels:
Format in all cases: biochemical
PRK2 = PRK2 (Homo sapiens, UniProt Q16513); assay: cell-free kinase activity assay; settings: DMSO control set 100%
PKCζ = target: T1, PKCζ (Homo sapiens, UniProt Q05513); assay: cell-free kinase activity assay; settings: DMSO control set 100%; for remaining activity at 50 µM / remaining activity at 200 µM: read-out: percent of catalytic activity of the Kinase in the presence of compound as compared to the solvent control (DMSO): PKCζ
T1 sequence (Q05513 1-592): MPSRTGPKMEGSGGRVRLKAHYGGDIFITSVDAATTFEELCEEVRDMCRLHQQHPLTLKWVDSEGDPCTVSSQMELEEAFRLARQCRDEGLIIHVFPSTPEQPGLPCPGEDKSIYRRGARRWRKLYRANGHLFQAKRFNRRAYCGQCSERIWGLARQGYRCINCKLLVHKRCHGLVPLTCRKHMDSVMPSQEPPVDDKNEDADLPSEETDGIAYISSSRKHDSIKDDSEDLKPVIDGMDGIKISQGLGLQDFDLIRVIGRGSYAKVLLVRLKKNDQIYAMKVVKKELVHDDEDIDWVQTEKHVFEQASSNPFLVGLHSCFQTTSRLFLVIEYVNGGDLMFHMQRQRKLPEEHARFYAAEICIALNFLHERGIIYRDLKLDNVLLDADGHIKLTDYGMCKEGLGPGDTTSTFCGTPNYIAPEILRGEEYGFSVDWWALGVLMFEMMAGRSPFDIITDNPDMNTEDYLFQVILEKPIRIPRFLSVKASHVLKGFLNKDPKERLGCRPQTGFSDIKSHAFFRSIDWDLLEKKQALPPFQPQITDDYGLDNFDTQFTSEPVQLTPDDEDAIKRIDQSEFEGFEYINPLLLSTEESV

SGK = target: T2, SGK (Homo sapiens, UniProt O00141); assay: cell-free kinase activity assay; settings: DMSO control set 100%; for remaining activity at 50 µM / remaining activity at 200 µM: read-out: percent of catalytic activity of the Kinase in the presence of compound as compared to the solvent control (DMSO): SGK
T2 sequence (O00141 1-431): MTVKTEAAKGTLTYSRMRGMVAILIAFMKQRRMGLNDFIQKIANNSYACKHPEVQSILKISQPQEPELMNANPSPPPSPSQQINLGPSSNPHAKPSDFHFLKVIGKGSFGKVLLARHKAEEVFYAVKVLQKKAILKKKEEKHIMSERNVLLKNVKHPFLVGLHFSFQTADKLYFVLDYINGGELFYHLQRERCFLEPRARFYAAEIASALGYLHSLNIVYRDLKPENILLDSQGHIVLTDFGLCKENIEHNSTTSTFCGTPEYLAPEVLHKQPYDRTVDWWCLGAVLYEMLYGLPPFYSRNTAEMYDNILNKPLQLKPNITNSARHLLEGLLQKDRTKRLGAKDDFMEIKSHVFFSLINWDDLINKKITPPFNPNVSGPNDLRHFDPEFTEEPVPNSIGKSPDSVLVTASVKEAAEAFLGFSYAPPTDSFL

PKA = PKA (Homo sapiens, UniProt P17612); assay: cell-free kinase activity assay; settings: DMSO control set 100%
PKBβ = PKBβ (Homo sapiens, UniProt P31751); assay: cell-free kinase activity assay; settings: DMSO control set 100%; for remaining activity at 200 µM / remaining activity at 50 µM: read-out: percent of catalytic activity of the Kinase in the presence of compound as compared to the solvent control (DMSO): PKBβ
Sequence of PKBβ (P31751 whole entry, species assumed): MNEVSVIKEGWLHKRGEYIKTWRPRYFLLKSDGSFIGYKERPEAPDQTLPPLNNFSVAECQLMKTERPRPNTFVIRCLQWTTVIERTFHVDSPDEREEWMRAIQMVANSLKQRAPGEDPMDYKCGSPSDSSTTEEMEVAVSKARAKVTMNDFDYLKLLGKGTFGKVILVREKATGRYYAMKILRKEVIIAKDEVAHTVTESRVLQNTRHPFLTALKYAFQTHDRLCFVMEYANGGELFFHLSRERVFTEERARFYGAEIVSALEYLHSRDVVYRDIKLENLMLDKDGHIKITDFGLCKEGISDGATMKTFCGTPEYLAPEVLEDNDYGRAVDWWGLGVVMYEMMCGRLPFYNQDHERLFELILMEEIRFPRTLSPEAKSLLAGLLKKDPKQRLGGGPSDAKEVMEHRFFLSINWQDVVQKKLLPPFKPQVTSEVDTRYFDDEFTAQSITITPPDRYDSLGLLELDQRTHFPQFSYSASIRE

PDK1 = target: T3, PDK1 (Homo sapiens, UniProt O15530); assay: cell-free kinase activity assay (ATPgamma[32P], T308tide substrate); settings: for activity at 50 µM: 50 μM compound; for activity at 50 µM / activity at 200 µM: DMSO control set 100%, read-out: percent of catalytic activity of the Kinase in the presence of compound as compared to the solvent control (DMSO): PDK1; for activity at 200 µM: 200 μM compound; for AC50: concentration of the compound required to activate half maximally; for AC50 / max. activation of PDK1 (fold): n.e.: no effect; for max. activation of PDK1 (fold): maximum activation achievable, compared to the basal activity of PDK1
T3 construct: GST
T3 sequence (O15530 1-556): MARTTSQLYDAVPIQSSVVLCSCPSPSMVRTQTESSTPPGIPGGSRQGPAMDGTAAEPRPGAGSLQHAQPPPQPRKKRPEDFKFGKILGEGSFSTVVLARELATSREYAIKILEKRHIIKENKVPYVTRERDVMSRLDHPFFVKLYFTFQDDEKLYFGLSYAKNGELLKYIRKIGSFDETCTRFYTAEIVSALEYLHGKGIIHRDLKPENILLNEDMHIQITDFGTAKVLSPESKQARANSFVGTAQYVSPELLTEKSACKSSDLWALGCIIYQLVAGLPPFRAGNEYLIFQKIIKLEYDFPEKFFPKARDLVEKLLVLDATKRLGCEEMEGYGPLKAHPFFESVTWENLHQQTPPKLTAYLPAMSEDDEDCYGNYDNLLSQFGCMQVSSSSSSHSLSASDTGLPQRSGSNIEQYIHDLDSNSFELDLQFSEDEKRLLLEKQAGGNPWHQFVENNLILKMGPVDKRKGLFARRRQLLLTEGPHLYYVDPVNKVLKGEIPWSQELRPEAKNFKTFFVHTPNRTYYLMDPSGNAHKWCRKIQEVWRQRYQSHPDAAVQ
Source text: Principle of the cell-free kinase activity assay: In general, the activity of the compounds as protein kinase inhibitors or activators may be assayed in vitro (cell free assay is meant here), in vivo or in a cell line. In vitro assays include assays that determine inhibition or activation of either the phosphorylation activity or ATPase activity of the activated protein kinase. Alternate in vitro assays quantitate the ability of the inhibitor to bind to the protein kinase. Compound binding may be measured by radiolabelling the compound prior to binding, isolating the inhibitor or activator/protein kinase complex and determining the amount of radiolabel bound. Alternatively, inhibitor or activator binding may be determined by running a competition experiment where new compounds are incubated with the protein kinase bound to known radioligands. Newer methods comprise fluorescence polarisation assays and surface plasmon resonance dependent techniques. […] The activity and modulation of activity is measured using a standard ATPgamma[^32P] assay as described earlier. […] The concentration of T308tide is 1 mM and the amount of PDK1 used is 200 ng. Reactions are carried out at room temperature. Reaction is started by addition of ATP-Mg mix and stopped with phosphoric acid after 30 min. Stopped reactions were spotted on to phosphocellulose paper (P81, Whatman) and washed. After drying, the radioactivity associated to the band was quantified.

S6K = S6K (Homo sapiens, UniProt P23443); assay: cell-free kinase activity assay; settings: DMSO control set 100%; for remaining activity at 200 µM / remaining activity at 50 µM: read-out: percent of catalytic activity of the Kinase in the presence of compound as compared to the solvent control (DMSO): S6K
Sequence of S6K (P23443 whole entry): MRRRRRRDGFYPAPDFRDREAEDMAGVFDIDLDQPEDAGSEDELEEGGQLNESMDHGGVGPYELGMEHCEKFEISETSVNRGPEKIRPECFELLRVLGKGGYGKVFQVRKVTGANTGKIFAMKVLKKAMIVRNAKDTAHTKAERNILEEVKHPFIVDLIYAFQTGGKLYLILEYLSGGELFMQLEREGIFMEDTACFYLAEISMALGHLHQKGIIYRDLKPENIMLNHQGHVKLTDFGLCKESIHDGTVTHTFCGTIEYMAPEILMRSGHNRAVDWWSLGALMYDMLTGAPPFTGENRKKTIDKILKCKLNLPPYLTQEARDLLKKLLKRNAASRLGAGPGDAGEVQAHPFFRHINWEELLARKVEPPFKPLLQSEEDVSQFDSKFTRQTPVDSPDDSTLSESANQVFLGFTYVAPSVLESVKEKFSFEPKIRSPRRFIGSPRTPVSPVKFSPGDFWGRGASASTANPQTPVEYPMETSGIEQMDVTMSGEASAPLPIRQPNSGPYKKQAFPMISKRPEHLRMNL

Sequence of PRK2 (Q16513 whole entry, species assumed): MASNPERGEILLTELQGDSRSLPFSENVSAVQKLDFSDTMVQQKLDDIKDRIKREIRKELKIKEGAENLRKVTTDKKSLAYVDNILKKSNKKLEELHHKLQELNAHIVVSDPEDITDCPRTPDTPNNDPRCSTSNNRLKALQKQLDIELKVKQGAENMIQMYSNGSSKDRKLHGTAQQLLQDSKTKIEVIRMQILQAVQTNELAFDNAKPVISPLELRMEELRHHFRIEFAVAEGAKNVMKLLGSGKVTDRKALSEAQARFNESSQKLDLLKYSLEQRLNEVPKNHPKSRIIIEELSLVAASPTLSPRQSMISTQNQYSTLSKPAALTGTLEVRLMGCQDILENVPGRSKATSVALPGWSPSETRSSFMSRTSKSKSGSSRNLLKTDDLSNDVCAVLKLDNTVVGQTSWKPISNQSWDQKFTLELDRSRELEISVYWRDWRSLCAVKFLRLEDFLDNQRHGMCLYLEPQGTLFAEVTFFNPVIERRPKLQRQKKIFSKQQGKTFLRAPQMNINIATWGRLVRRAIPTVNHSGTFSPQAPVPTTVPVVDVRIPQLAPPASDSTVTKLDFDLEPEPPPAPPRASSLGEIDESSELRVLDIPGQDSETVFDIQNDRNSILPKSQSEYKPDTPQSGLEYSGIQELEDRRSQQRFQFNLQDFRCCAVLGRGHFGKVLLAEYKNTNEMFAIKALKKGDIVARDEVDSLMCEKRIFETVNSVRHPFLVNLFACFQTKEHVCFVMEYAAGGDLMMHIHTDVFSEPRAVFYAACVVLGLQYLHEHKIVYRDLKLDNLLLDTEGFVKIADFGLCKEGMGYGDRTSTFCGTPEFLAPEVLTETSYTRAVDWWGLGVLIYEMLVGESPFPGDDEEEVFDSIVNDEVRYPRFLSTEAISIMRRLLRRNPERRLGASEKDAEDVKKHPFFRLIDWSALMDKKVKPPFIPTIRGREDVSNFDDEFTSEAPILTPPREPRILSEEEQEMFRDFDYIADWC

| percent of catalytic activity of the Kinase in the presence of compound as compared to the solvent control (DMSO): PRK2 (PRK2; 50 μM compound) | percent of catalytic activity of the Kinase in the presence of compound as compared to the solvent control (DMSO): PRK2 (PRK2; 200 μM compound) | percent of catalytic activity of the Kinase in the presence of compound as compared to the solvent control (DMSO): SGK (SGK; 50 μM compound) | percent of catalytic activity of the Kinase in the presence of compound as compared to the solvent control (DMSO): SGK (SGK; 200 μM compound) | percent of catalytic activity of the Kinase in the presence of compound as compared to the solvent control (DMSO): PKA (PKA; 50 μM compound) | percent of catalytic activity of the Kinase in the presence of compound as compared to the solvent control (DMSO): PKA (PKA; 200 μM compound) | percent of catalytic activity of the Kinase in the presence of compound as compared to the solvent control (DMSO): PKBβ (PKBβ; 50 μM compound) | activity at 50 µM (PDK1) | activity at 200 µM (PDK1) | percent of catalytic activity of the Kinase in the presence of compound as compared to the solvent control (DMSO): S6K (S6K; 50 μM compound) | remaining activity at 200 µM (S6K; 200 μM compound) | remaining activity at 50 µM (PKCζ; 50 μM compound) | remaining activity at 200 µM (PKCζ; 200 μM compound) | remaining activity at 50 µM (SGK; 50 μM compound) | remaining activity at 200 µM (SGK; 200 μM compound) | remaining activity at 200 µM (PKBβ; 200 μM compound) | remaining activity at 50 µM (PKBβ; 50 μM compound) | AC50 (PDK1) | max. activation of PDK1 (fold) (PDK1) | remaining activity at 50 µM (S6K; 50 μM compound) | SMILES | also measured |
| --- | --- | --- | --- | --- | --- | --- | --- | --- | --- | --- | --- | --- | --- | --- | --- | --- | --- | --- | --- | --- | --- |
| no effect | no effect | no effect | no effect | no effect | no effect | no effect | 240% | 310% | no effect | ~80% | – | – | – | – | – | – | – | – | – | O=C(O)CC(C(=O)N1CCc2ccccc2C1)c1ccc(Cl)cc1 (stereo not drawn) [PS 152] | percent of catalytic activity of the Kinase in the presence of compound as compared to the solvent control (DMSO): PKCζ (PKCζ; 50 μM compound): no effect; percent of catalytic activity of the Kinase in the presence of compound as compared to the solvent control (DMSO): PKCζ (PKCζ; 200 μM compound): no effect; percent of catalytic activity of the Kinase in the presence of compound as compared to the solvent control (DMSO): PKBβ (PKBβ; 200 μM compound): no effect |
| – | – | – | – | no effect | – | no effect | – | ~120% | no effect | ~80% | 50% | 0% | ~80% | ~40% | ~70% | – | – | – | – | O=C(O)/C=C(\CCc1ccc(Cl)cc1)c1ccccc1F [PS 145, (E)-5-(4-Chlorophenyl)-3-(2-fluorophenyl)pent-2-enoic acid] | remaining activity at 200 µM (PKA; 200 μM compound, read-out: percent of catalytic activity of the Kinase in the presence of compound as compared to the solvent control (DMSO): PKA): ~60% |
| no effect | – | – | – | – | – | – | – | 180% | – | 55% | 45% | 2% | 112% | 50% | 60 to 70% | 80 to 90% | 30 µM | 1.8 fold | 90% | O=C(O)/C=C1\c2ccccc2CC1Cc1ccc(Cl)cc1 (stereo not drawn) [PS 102] | remaining activity at 200 µM (PRK2; 200 μM compound, read-out: percent of catalytic activity of the Kinase in the presence of compound as compared to the solvent control (DMSO): PRK2): 110% |
| no effect | no effect | no effect | – | – | – | – | 150% | 150% | – | 65% | 45% | 3% | – | 60% | ~60% | ~80% | 11.6 µM | 4.1 fold | 90% | O=C(O)/C=C(/CCc1cccc(Cl)c1)c1ccccc1 [PS 87, (Z)-5-(3-Chlorophenyl)-3-phenylpent-2-enoic acid] | – |
| no effect | no effect | no effect | no effect | no effect | no effect | no effect | 400% | 450% | no effect | – | – | – | – | – | 70 to 80% | – | 14.5 µM | 4.1 fold | – | O=C(O)/C=C(/CCc1ccc(Br)cc1)c1ccccc1 [PS-T10, (Z)-5-(4-Bromophenyl)-3-phenylpent-2-enoic acid] | percent of catalytic activity of the Kinase in the presence of compound as compared to the solvent control (DMSO): S6K (S6K; 200 μM compound): no effect |
